Literature values as cited in article PMC6138493 (British Journal of Clinical Pharmacology, 2018).

Details: after intravenous administration; ref Onasch et al. 24

Elimination half‐life of DA in plasma: a few minutes
Compound: NCCc1ccc(O)c(O)c1 [DA, dopamine]
